# From US20220193047A1, “METHODS OF ENHANCING RADIOTHERAPY USING FERROPTOSIS INDUCERS AS RADIOSENSITIZERS” (THE TRUSTEES OF COLUMBIA UNIVERSITY IN THE CITY OF NEW YORK, priority 2019, published 2022)
# “Also recorded” adds a separate entry of the source.
# How the values were obtained:
# Format in all cases: cell-based
# HT-1080 cells [1] = experiment: Clonogenic assay with Cs-137 gamma radiation, HT-1080; settings: for Highest observed coefficient of Drug Interaction (CDI) in combination with IR: HT-1080; for Enhancement of radiation effect on clonogenic survival: HT-1080, cell death inducer plus radiation; for CDI with 4 Gy IR / CDI with 2 Gy IR: HT-1080 cells, CDI<1 synergy; for CDI with 2 Gy IR: inducer concentration (300 nM IKE, 20 nM RSL3, 1 nM staurosporine, 2 nM doxorubicin, 300 nM rapamycin, 100 ng/mL TNF + 20 μM Z-VAD-FMK + 300 nM birinapant)
# Procedure: (§1) 500 cells were seeded per well in 6-well plates in their respective growth media and incubated overnight. The next day, cells were co-treated with DMSO or compounds and radiation using a Gammacell 40 Caesium-137 irradiator (Theratronics). Plates were monitored every day using a light microscope for formation of colonies in the DMSO-treated wells. When colonies of >50 cells are clearly visible, the growth medium was discarded from all plates. The cells were washed with PBS, then fixed and stained with crystal violet solution (0.05% crystal violet, 1% formaldehyde, 1% methanol in PBS). Colonies were then directly visualized and counted.
# We tested their ability to prevent clonogenic growth, along with DMSO-treated controls.
# (§2) The coefficient of drug interaction (CDI), used to compute interaction between two drugs, was used to quantify synergy between cell death inducers and radiation according to the formula CDI=AB/(A×B), where AB is the surviving fraction of the combination treatment, and A and B are the surviving fractions of the individual treatments.
# SK-LMS-1 cells = experiment: Clonogenic assay with radiation, SK-LMS-1
# Procedure: as §1
# as §2, with “treatments. […]” for “treatments.”
# It was then tested whether cell death enhancement of radiation with ferroptosis inducers occurred across diverse tumor cell types. […] In addition to the initial ferroptosis-sensitive HT-1080 sarcoma cell line, glioma and lung cancer cells were evaluated, due to the clinical relevance of radiation therapy for the treatment of these tumor types. […]
# [2] = system: lipid peroxidation in HT-1080 cells; experiment: Lipid ROS assay by flow cytometry (C11-BODIPY); settings: HT-1080, 24 h, 6 Gy radiation with 1 μM IKE or 50 nM RSL3; ferrostatin-1 co-treatment
# Procedure: 0.5 million cells were seeded in 10 cm dishes. The next day, they were co-treated with ferroptosis-modulating compounds and radiation and returned to the incubator. On the following day, cells were harvested in 15 ml tubes and washed twice with PBS followed by re-suspending in 500 μl of PBS containing 10 μM of BODIPY-C11 dye (Thermo Fisher Scientific, cat #D3861), and incubated at 37° C. for 30 minutes. The cells were then collected at 300× g for 5 minutes, washed with PBS three times, and subjected to the flow cytometry analysis. C6 flow cytometry system (BD Accuri cytometers) was used for the flow cytometer analysis. A minimum of 10,000 cells were analyzed per condition.
# To confirm that radiation causes lipid peroxidation in these cells, lipid peroxidation was also measured with C-11 BODIPY (581/591), a membrane-targeted lipid sensor dye. […] The resulting enhancement was reversed in both cases by also co-treating the cells with ferrostatin-1.
# [3] = system: γH2AX foci in HT-1080 cells; experiment: γH2AX immunofluorescence staining; settings: for Number of γH2AX foci: HT-1080, 30 minutes, 0 or 6 Gy, 10 μM IKE, 1 μM RSL3, 10 μM ferrostatin-1; for γH2AX foci formation, compound alone: HT-1080, 6 h, no radiation; for γH2AX foci in irradiated groups vs DMSO: HT-1080, 6 h post-treatment, 6 Gy
# Procedure: 10,000 cells were seeded on cover slips placed inside wells of 6-well plates. The next day, cells were treated with ferroptosis modulators and/or radiation, then returned to the incubator for 30 minutes or 6 hours. After the growth medium was removed, the cells were washed with PBS and fixed with 100 μl 4% paraformaldehyde per well for 10 minutes at room temperature. After three washes with PBS, cells were permeabilized with 100 μl Triton X-100 (0.1% v/v) per well for 10 minutes incubation at room temperature. Non-specific protein binding was blocked with 100 μl of BSA (1% v/v) per well for 20 minutes at room temperature. After removing excess BSA, 100 μl of primary mouse monoclonal anti-phospho histone-H2AX antibody (1:500) was added to each well for a 1-hour incubation at room temperature. Cells were washed with PBS and incubated with 100 μl of secondary antibody per well for 45 minutes at room temperature in the dark. Cells were washed with PBS and mounted on slides with one drop of Prolong anti-fade reagent with DAPI (Invitrogen) per coverslip. Slides were stored at 4° C. in the dark before analysis on a Zeiss LSM 700 confocal microscope with constant laser intensity for all analyzed samples.
# Mechanisms of the cellular lethality from radiation are thought to be mainly derived from the downstream caspase-dependent apoptosis induced by DNA damage, including complex double-strand DNA breaks (Lomax et al., 2013; Morgan and Lawrence, 2015). Therefore, it was desired to determine if ferroptosis inducers and radiation induce DNA damage or affect DNA repair. The extent of these effects of radiation was evaluated by measuring DNA damage and caspase activation in HT-1080 cells co-treated with radiation and ferroptosis inducers. […] The cells were either treated with radiation (6 Gy) or not irradiated (0 Gy) as a control.
# [4] = system: percent tail DNA in HT-1080 cells; experiment: Comet assay; settings: for DNA single strand damage (percent tail DNA), compound alone: HT-1080, 10 μM IKE or 1 μM RSL3, 30 minutes or 4 hours; for DNA damage (percent tail DNA), combined with radiation: HT-1080, 6 Gy, 30 minutes or 4 hours
# Procedure: 100,000 HT-1080 cells were seeded per well in 6-well plates and incubated overnight. On the next day, the cells were treated with ferroptosis modulators and/or radiation, then returned to the incubator for 30 minutes or 4 hours before being harvested with trypsin and counted. The comet assay was performed using the CometAssay kit (Trevigen) following the alkaline comet assay product instructions. All images were captured on a Zeiss LSM 700 confocal microscope with constant laser intensity for all analyzed samples. The fluorescent signal of each comet was analyzed using NIH ImageJ software.
# To test for other forms of DNA damage that cannot be detected by the γH2AX assay, a comet assay, which detects single strand DNA damage in addition to double strand breaks, was performed in HT-1080 cells treated under the same conditions.
# HT-1080 cells [5] = experiment: Microbeam irradiation and clonogenic assay; settings: HT-1080, clonogenic survival
# Procedure: 300-500 HT-1080 cells were plated on polypropylene film treated with 3.5 μg/cm^2 Cell-Tak adhesive (BD Biosciences). The next day, cells were stained with Hoechst 33342 for 30 min. Cells were imaged, and their center-of-gravity coordinates were registered to automatically locate them by the microbeam control program. For nuclear irradiation, protons (^1H+) were directed by a precision beam to the center of the nucleus. For cytoplasmic irradiation, protons were directed to two locations 7 μm away from the ends of the major axis of each nucleus, as previously described (Wu et al., 1999). In each case, the beam has an accuracy of ±0.2 μm with 95% efficiency. Post-irradiation, cells were trypsinized and re-plated at a density of 500 cells per well in 6-well plates for clonogenic assays.
# To target the microbeam, cells were labeled with Hoechst stain and imaged. Nuclear radiation was delivered to the center of gravity of the cell nucleus, whereas cytoplasmic radiation was delivered to two sites 7 microns away from the nuclear edge along the nuclear long axis (FIG. 5A). Using this method, we first established dose responses of these cells to nuclear and cytoplasmic radiation. […] Compared to conventional photon radiation, these doses approximately correspond to 1 Gy to the nucleus and between 1-5 Gy to the cytoplasm, a therapeutically relevant dose range that is consistent with our previous experiments.
Compound,Highest observed coefficient of Drug Interaction (CDI) in combination with IR (HT-1080 cells [1]),Enhancement of radiation effect on clonogenic survival (HT-1080 cells [1]),CDI with 4 Gy IR (HT-1080 cells [1]),CDI with 2 Gy IR (HT-1080 cells [1]),Highest observed coefficient of Drug Interaction (CDI) in combination with IR (SK-LMS-1 cells),C-11 BODIPY fluorescence [2],Number of γH2AX foci [3],"γH2AX foci formation, compound alone [3]",γH2AX foci in irradiated groups vs DMSO [3],"DNA single strand damage (percent tail DNA), compound alone [4]","DNA damage (percent tail DNA), combined with radiation [4]",Synergy with cytoplasmic microbeam radiation (HT-1080 cells [5]),Synergy with nuclear microbeam radiation (HT-1080 cells [5]),"Colony formation after radiation alone (HT-1080 cells [1]; HT-1080, 2 or 4 Gy radiation, no ferroptosis inducer)","Synergy between IKE or RSL3 and radiation in colony formation (HT-1080 cells [1]; HT-1080, co-treatment with ferroptosis inhibitor)","Synergy between sorafenib and radiation in colony formation (HT-1080 cells [1]; HT-1080, co-treatment with ferrostatin-1)"
"CC(C)Oc1ccc(C(=O)Cn2ccnc2)cc1-n1c(CN2CCN(C(=O)COc3ccc(Cl)cc3)CC2)nc2ccccc2c1=O [IKE, imidazole ketone erastin]",0.17,significantly enhanced the effects of radiation,0.17,0.35,0.48,significantly increased C-11 BODIPY fluorescence,did not affect the number of observed γH2AX foci,did not result in γH2AX foci formation,no differences were observed,not detect a significant increase,no significant enhancement of DNA damage,synergized strongly,,,,
"COC(=O)c1ccc([C@@H]2c3[nH]c4ccccc4c3C[C@@H](C(=O)OC)N2C(=O)CCl)cc1 [RSL3, Ras Synthetic Lethal 3]",0.09,significantly enhanced the effects of radiation,0.09,0.27,0.31,significantly increased C-11 BODIPY fluorescence,did not affect the number of observed γH2AX foci,did not result in γH2AX foci formation,no differences were observed,not detect a significant increase,no significant enhancement of DNA damage,synergized strongly,no synergy,,,
CCOC(=O)c1ccc(NC2CCCCC2)c(N)c1 [ferrostatin-1],,,,,,reversed,did not affect the number of observed γH2AX foci,,no differences were observed,,did not observe a significant protective effect,,,significantly rescued colony formation; also recorded: partially rescued cell death induced by radiation alone,suppress the synergy,partially suppressible
